# From patent US20220175776A1, “COMBINATION OF CHIR99021 AND VALPROIC ACID FOR TREATING HEARING LOSS” (Frequency Therapeutics, Inc., priority 2019, published 2022)
# Key:
# TAZ = settings: Table 10; literature, cells not named; cited from earlier work
# Lgr5+ cochlear cells = experiment: Lgr5+ Assay (in vitro Lgr5+ cell proliferation assay); format: cell-based
# MAO A = target: T1, MAO A (Homo sapiens, UniProt P21397); settings: Table 6; marked A or first value of cell; read-out: Select MAOs A and B: MAO A; cited from earlier work
# T1 sequence (P21397 1-527): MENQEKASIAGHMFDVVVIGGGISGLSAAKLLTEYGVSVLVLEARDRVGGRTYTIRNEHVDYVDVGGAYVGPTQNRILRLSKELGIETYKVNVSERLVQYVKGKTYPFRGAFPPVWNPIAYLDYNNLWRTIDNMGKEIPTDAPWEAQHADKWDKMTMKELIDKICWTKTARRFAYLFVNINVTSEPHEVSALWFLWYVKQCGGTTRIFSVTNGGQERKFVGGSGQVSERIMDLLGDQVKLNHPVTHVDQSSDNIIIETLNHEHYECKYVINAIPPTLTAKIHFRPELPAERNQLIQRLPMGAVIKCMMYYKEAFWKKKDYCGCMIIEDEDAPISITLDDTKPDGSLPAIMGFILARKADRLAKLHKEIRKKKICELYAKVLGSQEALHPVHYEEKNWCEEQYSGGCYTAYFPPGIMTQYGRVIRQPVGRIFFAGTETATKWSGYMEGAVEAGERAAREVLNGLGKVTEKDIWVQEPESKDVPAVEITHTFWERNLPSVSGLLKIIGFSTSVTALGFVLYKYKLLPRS
# KDM1b = target: T2, KDM1b (Homo sapiens, UniProt Q8NB78); settings: Table 6; read-out: Select KDM 1b; cited from earlier work
# T2 sequence (Q8NB78 1-822): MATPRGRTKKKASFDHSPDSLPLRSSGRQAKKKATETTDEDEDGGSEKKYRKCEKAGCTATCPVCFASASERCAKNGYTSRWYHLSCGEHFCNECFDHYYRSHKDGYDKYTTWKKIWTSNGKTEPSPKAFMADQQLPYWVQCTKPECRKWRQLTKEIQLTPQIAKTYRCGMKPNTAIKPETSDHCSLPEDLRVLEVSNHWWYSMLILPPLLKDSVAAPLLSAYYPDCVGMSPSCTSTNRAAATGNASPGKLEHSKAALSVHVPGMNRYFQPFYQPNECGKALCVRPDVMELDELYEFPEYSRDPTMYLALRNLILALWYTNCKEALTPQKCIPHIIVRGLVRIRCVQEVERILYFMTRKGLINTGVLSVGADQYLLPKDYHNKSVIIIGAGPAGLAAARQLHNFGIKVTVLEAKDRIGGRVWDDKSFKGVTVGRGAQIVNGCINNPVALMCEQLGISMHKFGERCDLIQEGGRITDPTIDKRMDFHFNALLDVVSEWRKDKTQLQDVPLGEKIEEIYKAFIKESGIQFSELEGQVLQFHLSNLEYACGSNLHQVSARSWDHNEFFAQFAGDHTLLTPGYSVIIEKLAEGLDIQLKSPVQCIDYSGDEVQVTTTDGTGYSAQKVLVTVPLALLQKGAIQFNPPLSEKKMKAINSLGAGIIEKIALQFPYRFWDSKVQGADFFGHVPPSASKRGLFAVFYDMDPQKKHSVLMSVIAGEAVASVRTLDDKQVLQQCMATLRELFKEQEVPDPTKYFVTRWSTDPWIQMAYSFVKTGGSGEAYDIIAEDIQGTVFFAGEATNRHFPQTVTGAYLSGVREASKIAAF
# LSD1 = LSD1 (Homo sapiens, UniProt O60341); settings: Table 6; cited from earlier work
# [1] = human, in vivo
# Description: Patients underwent physical examination of weight and height, vital signs (body temperature, pulse rate, blood pressure), 12-lead electrocardiogram (ECG), drug screen, clinical laboratory testing (hematology, serum chemistry, urinalysis), urine pregnancy test, and hepatitis B and C antibody tests.
# [2] = Perilymph sampling after intratympanic injection, mass spectrometry; format: in vivo; settings: mice, perilymph of 7 animals, within 0.5 hours after intratympanic injection of 10 µL with 87.6 mg/ml NaVPA and 1.39 mg/ml CHIR99021
# Experimental: The effects of CHIR99021 and valproic acid (VPA) on hearing in mice with SNHL were examined. Ten-week-old CBA/CaJ mice were deafened using an established method in which mice were exposed to 8-16 kHz octave band noise for 2 hours at ≥116 dB (Wang et al., 2002). […] Auditory brainstem responses (ABRs) were obtained using tone-burst stimuli for frequencies spanning ˜80% of the cochlea 24 hours after noise administration to establish a baseline for recovery. Animals were dosed once following the 24 hour ABR. Distortion product otoacoustic emissions (DPOAEs) were not routinely analyzed since thresholds after treatment were above DPOAE detection levels. CHIR99021 and VPA were delivered locally by intratympanic injection into the middle ear using a pulled glass pipette, a technique that mimics the standard clinical middle ear injection technique used in humans. The delivery vehicle was adapted from previous work using thermo-reversible poloxamer gels to deliver drugs into the middle ear for diffusion into the cochlea (Salt et al, 2011; Wang et al, 2009). […] Using established techniques (Hirose et al., 2014), perilymph was sampled from 7 animals and analyzed using mass spectrometry to determine entry of CHIR99021 and VPA into the cochlea. Within 0.5 hours, CHIR99021 was detected at 3.5 μM+1.5 μM and VPA was detected at 310.3 μM+51.8 μM. […]
# HER 2 = HER 2 (Homo sapiens, UniProt P04626); settings: Table 13; cited from earlier work
# HER 4 = HER 4 (Homo sapiens, UniProt Q15303); settings: Table 13; cited from earlier work
# KDM = settings: Table 9; cited from earlier work
# KDM2 = settings: Table 9; read-out: Select KDM2; cited from earlier work
# gamma secretase = settings: SH-SY5Y cells; read-out: Lit cell conc, IC50; cited from earlier work
# [3] = Table 10, TAZ activators, concentration range
# HER 2, sequence (P04626 23-1255): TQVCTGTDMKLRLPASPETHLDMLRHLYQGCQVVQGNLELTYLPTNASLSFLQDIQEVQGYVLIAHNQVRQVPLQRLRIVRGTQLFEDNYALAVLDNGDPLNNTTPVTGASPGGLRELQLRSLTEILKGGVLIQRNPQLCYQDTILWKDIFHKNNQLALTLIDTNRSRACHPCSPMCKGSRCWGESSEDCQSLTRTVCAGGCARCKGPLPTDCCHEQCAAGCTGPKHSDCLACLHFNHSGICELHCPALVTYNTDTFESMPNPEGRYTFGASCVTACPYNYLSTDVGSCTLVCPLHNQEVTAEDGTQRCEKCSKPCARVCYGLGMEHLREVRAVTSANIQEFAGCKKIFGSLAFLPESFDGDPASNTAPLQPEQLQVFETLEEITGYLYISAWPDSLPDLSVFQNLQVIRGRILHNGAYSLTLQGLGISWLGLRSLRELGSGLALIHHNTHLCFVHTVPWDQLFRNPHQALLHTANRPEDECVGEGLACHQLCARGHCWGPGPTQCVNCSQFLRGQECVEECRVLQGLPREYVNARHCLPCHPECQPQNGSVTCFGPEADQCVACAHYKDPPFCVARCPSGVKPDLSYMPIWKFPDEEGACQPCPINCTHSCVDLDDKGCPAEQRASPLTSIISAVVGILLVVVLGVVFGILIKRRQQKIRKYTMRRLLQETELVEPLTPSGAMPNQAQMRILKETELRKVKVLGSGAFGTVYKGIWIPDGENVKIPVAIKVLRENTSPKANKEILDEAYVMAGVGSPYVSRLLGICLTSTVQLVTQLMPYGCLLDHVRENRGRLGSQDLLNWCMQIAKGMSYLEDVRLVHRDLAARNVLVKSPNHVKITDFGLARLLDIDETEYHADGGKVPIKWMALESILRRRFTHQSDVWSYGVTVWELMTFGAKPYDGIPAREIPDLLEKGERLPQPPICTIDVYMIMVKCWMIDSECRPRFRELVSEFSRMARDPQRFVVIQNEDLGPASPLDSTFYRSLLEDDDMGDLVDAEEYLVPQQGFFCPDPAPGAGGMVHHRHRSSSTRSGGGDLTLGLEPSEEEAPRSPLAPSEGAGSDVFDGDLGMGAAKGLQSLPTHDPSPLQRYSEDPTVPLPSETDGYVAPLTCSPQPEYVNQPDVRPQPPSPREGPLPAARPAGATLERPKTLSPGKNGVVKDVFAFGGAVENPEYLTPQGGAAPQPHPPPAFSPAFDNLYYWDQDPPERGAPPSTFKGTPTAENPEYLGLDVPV
# HER 4, sequence (Q15303 26-1308): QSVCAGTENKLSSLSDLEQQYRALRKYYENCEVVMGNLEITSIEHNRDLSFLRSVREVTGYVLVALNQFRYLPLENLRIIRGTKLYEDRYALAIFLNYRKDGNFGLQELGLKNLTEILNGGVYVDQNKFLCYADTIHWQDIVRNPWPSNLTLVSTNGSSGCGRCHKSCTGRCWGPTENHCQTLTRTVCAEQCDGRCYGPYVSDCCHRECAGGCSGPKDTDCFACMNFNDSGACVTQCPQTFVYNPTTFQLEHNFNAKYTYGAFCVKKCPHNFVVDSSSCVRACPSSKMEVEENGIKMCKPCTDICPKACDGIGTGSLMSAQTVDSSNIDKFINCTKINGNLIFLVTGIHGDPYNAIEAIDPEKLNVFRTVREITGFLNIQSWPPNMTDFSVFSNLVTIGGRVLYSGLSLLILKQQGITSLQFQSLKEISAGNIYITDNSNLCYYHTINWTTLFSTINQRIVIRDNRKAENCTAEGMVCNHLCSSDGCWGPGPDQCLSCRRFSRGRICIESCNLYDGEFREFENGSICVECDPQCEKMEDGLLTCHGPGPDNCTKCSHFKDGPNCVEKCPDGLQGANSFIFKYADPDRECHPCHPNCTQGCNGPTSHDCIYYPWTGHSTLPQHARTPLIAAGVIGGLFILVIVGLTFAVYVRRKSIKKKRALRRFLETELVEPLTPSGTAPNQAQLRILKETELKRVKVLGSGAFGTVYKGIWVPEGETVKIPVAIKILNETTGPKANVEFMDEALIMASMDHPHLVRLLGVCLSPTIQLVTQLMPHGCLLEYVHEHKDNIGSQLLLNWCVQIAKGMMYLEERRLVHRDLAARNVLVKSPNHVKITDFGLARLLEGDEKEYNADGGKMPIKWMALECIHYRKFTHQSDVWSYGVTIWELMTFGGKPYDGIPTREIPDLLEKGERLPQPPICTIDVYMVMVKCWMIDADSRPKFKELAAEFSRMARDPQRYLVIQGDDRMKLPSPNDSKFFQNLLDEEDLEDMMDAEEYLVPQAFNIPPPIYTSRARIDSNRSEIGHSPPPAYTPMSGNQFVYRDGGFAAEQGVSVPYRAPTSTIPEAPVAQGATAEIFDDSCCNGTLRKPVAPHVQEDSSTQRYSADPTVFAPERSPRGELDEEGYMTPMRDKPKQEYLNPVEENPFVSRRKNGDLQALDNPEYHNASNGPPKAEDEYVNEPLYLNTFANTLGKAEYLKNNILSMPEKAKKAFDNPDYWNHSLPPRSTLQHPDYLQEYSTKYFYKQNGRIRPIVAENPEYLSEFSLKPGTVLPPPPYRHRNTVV
compound,measurement,setting,value
CCCCc1nc2cc(-c3cccnc3)c(C)nc2n1Cc1ccc(-c2ccccc2-c2nn[nH]n2)cc1 [TM-25659],Lit Cell,TAZ,10 to 100 µM
same,Lgr5+ Assay,Lgr5+ cochlear cells; [3],10 to 100 µM
N[C@H]1CC[C@H](N[C@@H]2C[C@H]2c2ccccc2)CC1 [ORY-1001],IC50,MAO A,> 100 µM
same,IC50,KDM1b,> 100 µM
same,Lgr5+ Assay,Lgr5+ cochlear cells; Table 6,0.041 µM
same,Literat. Cell,LSD1,0.5 to 3 nM
"CCCC(CCC)C(=O)O [VPA, valproic acid]",time to peak plasma concentrations,[1],≤ 2 h
same,time until cleared from the systemic circulation,[1],≤ 24 h
same,concentration detected in perilymph,[2],310.3 µM
C=CC(=O)N1CCC(Oc2cc3c(Nc4ccc(Cl)c(Cl)c4F)ncnc3cc2OC)CC1 [poziotinib],IC50,HER 2,0.005 µM
same,IC50,HER 4,0.023 µM
O=C(O)CCNc1cc(N2CCc3ccccc3CC2)nc(-c2ccccn2)n1 [GSK-J1],Lit Cell,KDM,50 µM
C=CCNc1nc(N)c(C(=O)c2ccc(F)s2)s1 [TT10],Lit Cell,TAZ,1 µM
same,Lgr5+ Assay,Lgr5+ cochlear cells; [3],1 to 10 µM
O=C(O)CCN(O)C(=O)CCCCCCCCC1CC1 [TC-E 5002],IC50,KDM2,6.8 µM
O=C(O)CCC1CCC(c2cc(F)ccc2F)(S(=O)(=O)c2ccc(Cl)cc2)CC1 (stereo not shown) [MK-0572],IC50,gamma secretase,0.005 µM
